From patent US11141491B2, “PH-sensitive lipid nanoparticles for encapsulation of anticancer drugs and microRNA and use thereof” (National Yang-Ming University, priority 2018, dated 2021)

Tests used:
HCT116 cells [1] = assay: Endocytosis mechanisms for uptake of DiI/Lip-RFKH; format: cell-based, human; conditions: 3 h-incubation, endocytosis inhibitor added
[2] = pH-sensitive release (dialysis against PBS); format: physicochemical; conditions: both pH 7.4 and pH 6.5, 37° C.
Method: Irinotecan- or miR-loaded formulations were placed in a dialysis bag (1,000-3,500 MWCO) and dialyzed separately against PBS at pH 7.4 and 6.5. At the indicated time, solution was withdrawn from the incubation medium. The irinotecan concentrations were determined by HPLC to calculate the cumulative drug release %.

IEC-6 cells = assay: Cell viability, sulforhodamine B assay, IEC-6; format: cell-based, rat; conditions: noncancerous IEC-6 cells, 48 h, SRB
HCT116 cells [3] = assay: Cell viability, sulforhodamine B assay, HCT116; format: cell-based, human; conditions: 48 h, SRB
Method: The cytotoxicity of formulations in rat small intestinal epithelial IEC-6 cells and human colorectal cancer HCT116 cells was determined using a sulforhodamine B (SRB) assay. After 48-h incubation with various formulations, the cells were stained with SRB for 10 min. The absorbance at 540 nm was detected with a microplate TECAN reader.

CT26 tumor = assay: In vivo antitumor efficacy, IVIS and PET/CT imaging, body weight in CT26-bearing mice; conditions: 28 days
Method: Male BALB/c mice at the age of 6 weeks with body weights of 20±2 g were purchased from National Laboratory Animal Center (Taipei, Taiwan) and maintained in an individual ventilation cage system. The animals were ensured free access to sterilized food and water. CT-26 (10^5 cells in 0.1 ml PBS) were injected subcutaneously into the right flank of mice to obtain tumor-bearing BALB/c mice. All processes performed on the animals were in accordance with the National Institutes of Health Guide for the Care and Use of Laboratory Animals and were approved by the National Yang-Ming University Animal Committee.
CT-26 cells (10^5 cells in 0.1 ml PBS) were injected subcutaneously into the right flank of mice to obtain tumor-bearing BALB/c mice. When tumor volume reached approximately 100 mm^3 (equation 4), the mice were randomly assigned to six groups (n=5 for each group). […] Mice were injected intravenously (IV) with Iri at 100 mg/kg and miR-200 at 1.25 mg/kg in different formulations every 7 days for 28 days. Fluorescence images were visualized one day after the final treatment using an IVIS […] (Caliper). […]
Tumor images were monitored using PET/CT. […]
Animal body weight and tumor size were detected every 3 or 4 days for 28 days. Tumor size was measured with a digital caliper and the tumor volume (V) was calculated (equation 4).

[4] = Biochemical tests, H&E staining and TUNEL assay in CT26 tumor-bearing mice; format: in vivo; conditions: 48 h after last treatment
Method: Tumor-bearing mice were treated as described above. Blood samples (170 μl) were taken from the orbital sinus of mice 48 h after the final treatment. After harvesting and centrifugation for 15 min, liver, kidney and heart functions were assessed by detecting the serum levels of glutamate pyruvate transaminase (GPT), creatinine (CRE), and creatine kinase-MB (CK-MB) using corresponding activity assay kits (Fujifilm, Tokyo, Japan) and a clinical dry chemistry analyzer (Fuji Dri-Chem 7000V, Fujifilm Corp.). Additionally, the tumors and intestines were fixed in 4% paraformaldehyde overnight, embedded in paraffin, and cut into 5-μm-thick sections for H&E staining, and the histology of these samples was examined using an Olympus microscope.
TUNEL assay was performed to assess in vivo apoptosis in CT26 tumor-bearing mice at 48 h after last treatment of different formulations.^[42] In brief, the samples were frozen and fixed in 4% paraformaldehyde for 20 min. After washing with PBS for 10 min, the samples were immersed on ice for 2 min. After mixing with reaction dispersion (50 μL) according to the manufacture's manual (In Situ Cell Death Detection Kit, Roche, Germany), the section samples were stained with Hoechst in the nuclei for comparison and monitored using CLSM.

[5] = Biodistribution of irinotecan in CT26/tk-luc-bearing mice; format: in vivo; conditions: UV spectrophotometer
Method: The biodistribution of irinotecan of different formulations in CT26-bearing mice was analyzed by UV spectrophotometer (*statistical significance at P<0.05; **statistical significance at P<0.01; ***statistical significance at P<0.001).

[6] = Biodistribution of irinotecan in SAS-luc-bearing nude mice; format: in vivo; conditions: UV spectrophotometer
Method: The biodistribution of irinotecan of different formulations in SAS-bearing mice was analyzed with UV spectrophotometer. (*statistical significance at P<0.05; **statistical significance at P<0.01; ***statistical significance at P<0.001).

Molecule | relative fluorescence intensity % of DiI/Lip-RFKH (HCT116 cells [1]) | release within 24 h [2] | cytotoxicity to IEC-6 cells (IEC-6 cells) | cytotoxicity / viability of HCT116 cells (HCT116 cells [3]; HCT116 cells) | cytotoxicity in HCT116 cells (HCT116 cells [3]; irinotecan at 4×10^−6 M) | body weight (CT26 tumor) | serum CKMB level [4] | serum CRE level [4] | serum GPT level [4] | biodistribution of irinotecan [5] | biodistribution of irinotecan [6] | hemolysis (rat blood cells)
CN(C)CCCN1c2ccccc2Sc2ccc(Cl)cc21 [chlorpromazine] | significant decreases |  |  |  |  |  |  |  |  |  |  | 
CCc1c2c(nc3ccc(OC(=O)N4CCC(N5CCCCC5)CC4)cc13)-c1cc3c(c(=O)n1C2)COC(=O)[C@]3(O)CC [irinotecan] |  | 100% | ≈ 30% | concentration-dependent inhibition | ≈ 20% | continuous decrease | provoked | provoked | provoked | mainly in the liver, kidney, and intestines | majorly in the liver, kidney, and intestines | ≈ 10%
poly-L-lysine | significant decreases |  |  |  |  |  |  |  |  |  |  | 
